From patent US10881110B2, “Herbicidal compositions comprising isoxazolo[5,4-b]pyridines” (BASF SE, priority 2014, dated 2021)

Legend:
Assay in all cases: greenhouse post-emergence herbicidal test
ABUTH = assay type: in vivo, Abutilon theophrast; design: key to herbicidal activity against ABUTH found: rating on a scale from 0 to 100
Method in brief: (§1)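 Post-emergence greenhouse test: plants in loamy sand, sprayed at 1–15 cm height with aqueous spray liquor from 10% emulsion concentrates, kept at 10-25 °C or 20-35 °C by species. Damage scored 0–100 (100 = complete destruction), usually 20 days after treatment. Expected additive effect E from Colby: E=X+Y−(X·Y/100).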

CHEAL = assay type: in vivo, Chenopodium album
Procedure: (§2) The culture containers used were plastic pots containing medium loamy sand with approximately 4.6% of humus and 69.9% sand as substrate. The seeds of the test plants were sown separately for each species.
(§3) For the post-emergence treatment, the test plants were grown to a plant height of from 1 to 15 cm, depending on the plant habit, and only then treated with the active compounds which had been suspended or emulsified in water. To this end, the test plants were either sown directly, and grown in the same containers, or they were first grown separately as seedlings and transplanted into the test containers a few days prior to treatment.
(§4) Depending on the species, the plants were kept at 10-25° C. and 20-35° C., respectively.
(§5) The test period extended over 1 to 3 weeks. During this time, the plants were tended and their response to the individual treatments was evaluated 20 days after treatment except mentioned otherwise.
(§6) Evaluation was carried out using a scale from 0 to 100. 100 means no emergence of the plants, or complete destruction of at least the above-ground parts, and 0 means no damage or normal course of growth.
(§7) The respective stated components A and B, and, if appropriate, C, were formulated as a 10% by weight strength emulsion concentrate and, with addition of the amount of solvent system, introduced into the spray liquor used for applying the active compound. In the examples, the solvent used was water.
(§8) In the examples below, using the method of S. R. Colby (1967) “Calculating synergistic and antagonistic responses of herbicide combinations”, Weeds 15, p. 22 ff., the value E, which is expected if the activity of the individual active compounds is only additive, was calculated. E=X+Y−(X·Y/100)

CONAR = assay type: in vivo, Convolvulus arvensis; design: key: rating on a scale from 0 to 100
Procedure: as §2, §3, §4, §5, §6, §7, §8

ERICA = assay type: in vivo, Conyza canadensis; design: key to herbicidal activity against ERICA found: rating on a scale from 0 to 100; details: post emergence
Method in brief: as §1

GALAP = assay type: in vivo, Galium aparine; design: key to herbicidal activity against GALAP found: rating on a scale from 0 to 100
Method in brief: (§9)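 Herbicidal activity scored on a 0 (no damage) to 100 (plants destroyed) scale, usually 20 days after water-based spraying of 1–15 cm plants grown in loamy sand at 10-25 °C or 20-35 °C depending on species. Components were applied from 10% emulsion concentrates; Colby's E=X+Y−(X·Y/100) gives the additive expectation.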

MATCH = assay type: in vivo, Matricaria recutita; design: key to herbicidal activity against MATCH found: rating on a scale from 0 to 100
Method in brief: as §1

AMBEL = assay type: in vivo, Ambrosia artemisiifolia; design: key: rating on a scale from 0 to 100
Procedure: as §2, §3, §4, §5, §6, §7, §8

POLCO = assay type: in vivo, Polygonum convolvulus; design: key to herbicidal activity against POLCO found: rating on a scale from 0 to 100
Method in brief: as §9

SASKR = assay type: in vivo, Salsola kali; design: key: scale 0 to 100
Procedure: as §2, §3, §4, §5, §6, §7, §8

VIOAR = assay type: in vivo, Viola arvensis; design: key to herbicidal activity against VIOAR found / herbicidal activity against VIOLA found: rating on a scale from 0 to 100; details: post emergence; for herbicidal activity against VIOAR found: B.84 (paraquat-dichloride) 17.5 g/ha, alone or as mixture (composition 1.84)
Method in brief: as §9

ALOMY = assay type: in vivo, Alopecurus myosuroides; design: key to herbicidal activity against ALOMY found: rating on a scale from 0 to 100; details: post emergence
Method in brief: as §1

ECHCG = assay type: in vivo, Echinochloa crus-galli; design: key to herbicidal activity against ECHCG found / herbicidal activity against ECHCH found: scale 0 to 100
Method in brief: as §1

APESV = assay type: in vivo, Apera spica-venti; design: key to herbicidal activity against APESV found: rating on a scale from 0 to 100
Method in brief: as §1

PAPRH = assay type: in vivo, Papaver rhoeas; design: key: rating on a scale from 0 to 100; details: B.93 alone 1.5 g/ha a.i.
Method in brief: as §1

IPOHE = assay type: in vivo, Ipomoea hederacea; design: key to herbicidal activity against IPOHE found: rating on a scale from 0 to 100; details: post emergence
Method in brief: as §9

GERDI = assay type: in vivo, Geranium dissectum; design: key to herbicidal activity against GERDI found: rating on a scale from 0 to 100; details: single active, post emergence
Method in brief: as §1

[1] = post emergence, a.i. g/ha: I.1 62.5, B.69 25, 20 days after treatment
[2] = a.i. g/ha: I.1 31.25, B.69 25, 20 days after treatment
[3] = a.i. g/ha: I.1 62.5, B.69 25, 20 days after treatment
[4] = application rate a.i.: I.1 31.25 g/ha, B.84 (paraquat-dichloride) 17.5 g/ha, alone or as mixture (composition 1.84)
[5] = post emergence, application rate a.i.: I.1 62.5 g/ha, B.84 (paraquat-dichloride) 17.5 g/ha, alone or as mixture (composition 1.84)
[6] = single active, 175 g/ha a.i., post emergence
[7] = single active, 350 g/ha a.i., post emergence
[8] = Abutilon theophrasti, post-emergence, 480 h, read-out: herbicidal activity against ABUTH found
[9] = Echinochloa crus-galli, post-emergence, 480 h, read-out: herbicidal activity against ECHCG found

N#Cc1cc(Br)c(O)c(Br)c1 [B.69, bromoxynil]
herbicidal activity against ABUTH found (ABUTH; [1]): 35% | herbicidal activity against CHEAL found (CHEAL; [2]): 60% | herbicidal activity against CHEAL found (CHEAL; [3]): 60% | herbicidal activity against CONAR found (CONAR; [2]): 50% | herbicidal activity against CONAR found (CONAR; [3]): 50% | herbicidal activity against ERICA found (ERICA; [3]): 30% | herbicidal activity against GALAP found (GALAP; [1]): 50% | herbicidal activity against MATCH found (MATCH; post emergence, a.i. g/ha: I.1 31.25, B.69 25, 20 days after treatment): 0%

CCNc1nc(Cl)nc(NC(C)(C)C)n1 [B.82, terbuthylazine]
herbicidal activity against CHEAL found (CHEAL; a.i. g/ha: I.1 62.5, B.82 31.25, 20 days after treatment): 65% | herbicidal activity against GALAP found (GALAP; post emergence, a.i. g/ha: I.1 62.5, B.82 31.25, 20 days after treatment): 55%

C[n+]1ccc(-c2cc[n+](C)cc2)cc1 [B.84, paraquat-dichloride]
herbicidal activity against AMBEL found (AMBEL; [4]): 90 | herbicidal activity against CONAR found (CONAR; application rate a.i.: I.1 62.5 g/ha, B.84 (paraquat-dichloride) 17.5 g/ha, alone or as mixture (composition 1.84)): 10 | herbicidal activity against ERICA found (ERICA; [4]): 35 | herbicidal activity against GALAP found (GALAP; post emergence, application rate a.i.: I.1 31.25 g/ha, B.84 (paraquat-dichloride) 17.5 g/ha, alone or as mixture (composition 1.84)): 55 | herbicidal activity against MATCH found (MATCH; [5]): 80 | herbicidal activity against POLCO found (POLCO; [5]): 30 | herbicidal activity against SASKR found (SASKR; [4]): 70 | herbicidal activity against VIOAR found (VIOAR; application rate a.i.: I.1 31.25 g/ha): 55 | herbicidal activity against VIOAR found (VIOAR; application rate a.i.: I.1 62.5 g/ha): 55

CCOc1cc(Oc2ccc(C(F)(F)F)cc2Cl)ccc1[N+](=O)[O-] [B.91, oxyfluorfen]
pest or weed control at 100 g/ha (ALOMY; Alopecurus myosuroides, post-emergence, 480 h, single active, 100 g/ha a.i., read-out: herbicidal activity against ALOMY found): 85% | herbicidal activity against AMBEL found (AMBEL; single active, 100 g/ha a.i.): 70 | pest or weed control at 100 g/ha (ECHCG; Echinochloa crus-galli, post-emergence, 480 h, single active, 100 g/ha a.i., post emergence, read-out: herbicidal activity against ECHCG found): 60% | pest or weed control at 100 g/ha (ERICA; Erigeron canadensis, post-emergence, 480 h, single active, 100 g/ha a.i., read-out: herbicidal activity against ERICA found): 0% | pest or weed control at 200 g/ha (ERICA; Erigeron canadensis, post-emergence, 480 h, single active, 200 g/ha a.i., read-out: herbicidal activity against ERICA found): 90%

Cc1nn(-c2cc(NS(C)(=O)=O)c(Cl)cc2Cl)c(=O)n1C(F)F [B.93, sulfentrazone]
pest or weed control at 1.5 g/ha (ALOMY; Alopecurus myosuroides, post-emergence, 480 h, B.93 alone 1.5 g/ha a.i., read-out: herbicidal activity against ALOMY found): 0% | herbicidal activity against AMBEL found (AMBEL; B.93 alone 1.5 g/ha a.i.): 20 | herbicidal activity against AMBEL found (AMBEL; B.93 alone 6 g/ha a.i.): 30 | pest or weed control at 1.5 g/ha (APESV; Apera spica-venti, post-emergence, 480 h, B.93 alone 1.5 g/ha a.i., post emergence, read-out: herbicidal activity against APESV found): 10% | pest or weed control at 1.5 g/ha (GALAP; Galium aparine, post-emergence, 480 h, B.93 alone 1.5 g/ha a.i., post emergence, read-out: herbicidal activity against GALAP found): 45% | pest or weed control at 1.5 g/ha (MATCH; Matricaria chamomilla, post-emergence, 480 h, B.93 alone 1.5 g/ha a.i., post emergence, read-out: herbicidal activity against MATCH found): 0% | pest or weed control at 3 g/ha (MATCH; Matricaria chamomilla, post-emergence, 480 h, B.93 alone 3 g/ha a.i., post emergence, read-out: herbicidal activity against MATCH found): 50% | pest or weed control at 6 g/ha (MATCH; Matricaria chamomilla, post-emergence, 480 h, B.93 alone 6 g/ha a.i., post emergence, read-out: herbicidal activity against MATCH found): 50% | herbicidal activity against PAPRH found (PAPRH): 70 | pest or weed control at 3 g/ha (POLCO; Fallopia convolvulus, post-emergence, 480 h, B.93 alone 3 g/ha a.i., post emergence, read-out: herbicidal activity against POLCO found): 85% | pest or weed control at 6 g/ha (POLCO; Fallopia convolvulus, post-emergence, 480 h, B.93 alone 6 g/ha a.i., post emergence, read-out: herbicidal activity against POLCO found): 85%

CS(=O)(=O)c1ccc(C(=O)C2C(=O)CCCC2=O)c(Cl)c1COCC(F)(F)F [B.106, tembotrione]
pest or weed control at 9.375 g/ha (ERICA; Erigeron canadensis, post-emergence, 480 h, 9.375 g/ha a.i., read-out: herbicidal activity against ERICA found): 90% | pest or weed control at 9.375 g/ha (IPOHE; Ipomoea hederacea, post-emergence, 480 h, 9.375 g/ha a.i., read-out: herbicidal activity against IPOHE found): 70% | pest or weed control at 9.375 g/ha (MATCH; Matricaria chamomilla, post-emergence, 480 h, post emergence, 9.375 g/ha a.i., read-out: herbicidal activity against MATCH found): 65% | herbicidal activity against SASKR found (SASKR; 9.375 g/ha a.i.): 65

COCC(C)N(C(=O)CCl)c1c(C)csc1C (stereo not drawn) [DMTA]
herbicidal activity against ALOMY found (ALOMY; single active, 175 g/ha a.i.): 0 | herbicidal activity against ALOMY found (ALOMY; single active, 350 g/ha a.i.): 45 | herbicidal activity against AMBEL found (AMBEL; single active, 175 g/ha a.i.): 0 | herbicidal activity against AMBEL found (AMBEL; single active, 350 g/ha a.i.): 20 | herbicidal activity against APESV found (APESV; [6]): 95 | herbicidal activity against ECHCG found (ECHCG; [6]): 90 | herbicidal activity against ERICA found (ERICA; single active, 175 g/ha a.i.): 15 | herbicidal activity against GERDI found (GERDI; 175 g/ha a.i.): 30 | herbicidal activity against GERDI found (GERDI; 350 g/ha a.i.): 60 | herbicidal activity against IPOHE found (IPOHE; single active, 350 g/ha a.i.): 25 | herbicidal activity against MATCH found (MATCH; [6]): 30 | herbicidal activity against MATCH found (MATCH; [7]): 30 | herbicidal activity against POLCO found (POLCO; [6]): 0 | herbicidal activity against POLCO found (POLCO; [7]): 25 | herbicidal activity against VIOLA found (VIOAR; single active, 175 g/ha a.i.): 0

COc1nc(C)nc(=NC(=O)NS(=O)(=O)c2ccccc2C(=O)O)[nH]1 [metsulfuron]
pest or weed control at 0.125 g/ha (ABUTH; [8]): 20% | pest or weed control at 0.25 g/ha (ABUTH; [8]): 80% | herbicidal activity against AMBEL found (AMBEL; metsulfuron alone 0.125 g/ha a.i.): 0 | pest or weed control at 0.25 g/ha (APESV; Apera spica-venti, post-emergence, 480 h, read-out: herbicidal activity against APESV found): 30% | pest or weed control at 0.125 g/ha (ECHCG; [9]): 0% | pest or weed control at 0.25 g/ha (ECHCG; [9]): 25% | pest or weed control at 0.125 g/ha (GALAP; Galium aparine, post-emergence, 480 h, read-out: herbicidal activity against GALAP found): 10% | pest or weed control at 0.125 g/ha (MATCH; Matricaria chamomilla, post-emergence, 480 h, read-out: herbicidal activity against MATCH found): 0% | pest or weed control at 0.125 g/ha (POLCO; Fallopia convolvulus, post-emergence, 480 h, read-out: herbicidal activity against POLCO found): 30%
